Measurements from paper PMC13195669, “GPR3 Ligands Discovered through Combined Virtual and Conformational Biosensor-Based Screening” (Journal of the American Chemical Society, 2026).

Molecular target: T1, GPR3 (Homo sapiens, UniProt P46089)
T1 construct: host or cells: HEK293A, transient
Test: FRET/BRET cAMP biosensor in HEK293A cells cotransfected with GPR3
Assay type: cell-based
Settings: for GPR3-dependent change in cAMP: cAMP biosensor, pcDNA vs GPR3 transfected HEK293A
Text: With the first GPR3 ligands identified by using a conformational readout in our hands, we next wanted to understand whether these compounds could have been detected in a cAMP-based assay, which has been used extensively in the past to screen for GPR3 ligands. We therefore tested rac-VH1/52, VH2/93 and VH3/115 in cells expressing a cAMP biosensor.
3 Effect of rac-VH1/52, VH2/93 and VH3/115 on GPR3-dependent cAMP production. (a–c) Vehicle-corrected BRET changes induced by rac-VH1/52 (a), VH2/93 (b) or VH3/115 (c) in HEK293A cells transiently transfected with a cAMP BRET sensor along with pcDNA or GPR3. […] Statistical significance was tested using Two-Way ANOVA followed by Sidak multiple comparison (*: […]; **: p < 0.01). […]
Plasmids and molecular cloning
The H187-EPAC-FRET sensor7 was kindly provided by K. Jalink (The Netherlands Cancer Institute, Amsterdam, The Nether-lands). The BRET-based cAMP sensor CAMYEL8 was kindly provided by Laura Humphrys (University of Regensburg, Regens-burg, Germany). Plasmids encoding the conformational biosensors α2AAR- and β2AR-HaloTag/Nluc9 and the Gs heterotrimer dissociation sensor10 were previously described. The expression plasmid encoding N-terminally HA-tagged GPR3 (cat. no.
#GPR003TN00) on a pcDNA3.1+ vector was obtained from the cDNA resource center (cdna.org). The Nluc and HaloTag in-serts were amplified with overhanging restriction sites from β2AAR- HaloTag/Nluc and ligated to the full-length C-terminus or inserted into icl3 of GPR3, respectively, to obtain the conformational biosensor GPR3-HaloTag/Nluc. Point mutants of GPR3-HaloTag/Nluc were generated using the GeneArt Site-directed Mutagenesis System (Thermo Fisher Scientific). All con-structs were verified by sequencing (Eurofins genomics).
Poly-D-lysine, polyethylenimin hydrochloride (linear; average Mn 20 000; PEI) , […], LPA , forskolin, NECA and bovine serum albumin (BSA) were obtained from Sigma Aldrich (Merck KGaA). Dulbecco's Modified Eagle's Medium (DMEM), Dul-becco's Phosphate -Buffered Saline (DPBS) and G -418 (Geneticin) were from Gibco. Diphenyleneiodonium chloride (DPI) and AF64394 were purchased from Tocris (Bio -Techne). The TMB (3, 3', 5, 5' tetramethyl benzidine) substrate reagent set was from BioLegend. The Nluc substrate furimazine and the red fluorescen t HaloTag dye, HaloTag® NanoBRET® 618 Ligand, were obtained in a single kit from Promega (cat. no. N1662). D-luciferin-sodium and the S1PR1 agonist III were from Med-ChemExpress. The Rluc substrate coelenterazine 400a was from NanoLight Technology (cat. no. 340 -10). White -wall, white - bottomed 96 -well, black -wall, black bottomed and transparent 96 -well microtiter plates were from Brand.
HEK293A cells were used for transient transfection and grown in Dulbecco’s modified Eagle’s medium (DMEM) supplemented with 2 mM glutamine, 10 % fetal calf serum, streptomycin (0.1 mg/mL), and penicillin (100 U/mL) at 37 °C with 5 % CO2. […]
Transient transfection and plating
Resuspended cells (300,000 cells/mL) were transfected in suspension with a total of 1 μg DNA/mL suspension using PEI (1 mg/ml stock solution; 3 μL PEI solution per μg DNA). For cAMP experiments with FRET- or BRET-based sensors, resuspended cells were transfected with 500 ng pcDNA, wildtype GPR3 or GPR3-HaloTag/Nluc constructs along with 500 ng of the FRET-or BRET-based cAMP sensor per mL cell suspension. For cAMP experiments with GloSensor™ 22F, resuspended cells were transfected with 250 ng pcDNA or GPCR along with 500 ng of a 1:1 mix of pcDNA with the GloSensor™ 22F per mL cell sus-pension. Cells mixed with the transfection reagents were seeded onto poly-D-lysine–precoated, 96-well plates and grown for 48 h at 37 °C with 5 % CO2. Stable α2AAR-, β2AR- or GPR3-HaloTag/Nluc expressing cells were seeded 24 h before the experi-ment at a density of 800,000 cells/mL into white 96-well plates. To monitor changes in BRET in with conformational GPCR […]

[1] = 30 μM pretreatment, cells coexpressing GPR3

T1 sequence (P46089 whole entry): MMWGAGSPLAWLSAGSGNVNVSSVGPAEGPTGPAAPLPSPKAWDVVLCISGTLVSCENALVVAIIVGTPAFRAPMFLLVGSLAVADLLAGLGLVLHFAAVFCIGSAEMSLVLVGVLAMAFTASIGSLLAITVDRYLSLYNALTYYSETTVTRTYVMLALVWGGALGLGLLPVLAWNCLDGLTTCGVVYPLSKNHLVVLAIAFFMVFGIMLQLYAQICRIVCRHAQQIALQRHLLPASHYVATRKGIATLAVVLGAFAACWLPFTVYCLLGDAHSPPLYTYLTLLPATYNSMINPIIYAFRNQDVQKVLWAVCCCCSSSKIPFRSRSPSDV

Row | effect of pretreatment on AF64394 response in cAMP assay [1] | effect of pretreatment on DPI-induced cAMP generation [1] | Compound | GPR3-dependent change in cAMP
1 | no effect on the effect of AF64394 | inhibited DPI-induced cAMP generation | N=c1n(Cc2ccccc2)c2ccccc2n1CC1CC1 [compound 33] | 
2 |  |  | N=c1n(Cc2ccccc2)c2ccccc2n1CC(O)COc1ccc(Cl)cc1 (stereo not shown) [compound 52] | induced GPR3-dependent changes in cAMP concentrations
3 |  |  | Cc1ccc(NC(=O)CN2CCN(C(=O)CCc3ccc(Cl)cc3)CC2)cc1 [compound 115] | modulates the conformation of GPR3 but not GPR3-dependent cAMP production
